The structures appear in SMILES notation.

One series is described as follows: Miscibility with hexane. Format: physicochemical. The following applies: this work.
The next series can be described thus: Miscibility with water. Type of series: physicochemical. Conditions: this work.

For the compound `CN(C)C=O` [DMF, N,N‐dimethylformamide], the Hexane misc. result in “Miscibility with hexane” was “no^[a]”. In addition, in the series “Miscibility with water”, the Water misc. entry is “yes^[a]”.

(Values after article PMC7318222, “A Family of Water‐Immiscible, Dipolar Aprotic, Diamide Solvents from Succinic Acid” (Chemsuschem, 2020).)
